Our source for the melting point values is a melting point compilation (Tetko et al.; mined from patent text by program, amines drawn as free bases though some values may be those of a salt).

Some results are limits rather than exact numbers.

With `CN1CCN(Cc2ccc(-c3cccc(-c4cncc(C#N)c4Nc4ccc5[nH]ccc5c4)c3)s2)CC1`, the melting point (as a rule, the temperature of the solid-liquid transition) lay within 120 to 123 °C.

In turn, `Cc1c(C)c2c(c(C)c1NCc1ccccc1)OC(C)(C)C2=O` yielded a melting point of 79 to 83 °C.

With `COC(=O)c1cc2ccccc2c(-c2ccnc(Cl)c2)c1C(=O)OC`, the melting point lay within 174 to 178 °C.

Regarding `CNc1nnc(C(C)(CCl)CCl)s1`, the melting point lay within 105 to 107 °C.

`O=C(O)C1C2CC3C(C2=O)C31` (configuration not stated) gave a melting point of 144 to 145 °C.

`OCCN1CCN(c2cc(Cl)nc(-c3ccccc3)n2)CC1` came in with a melting point of 103 to 105 °C.

For `Cc1cc(C)cc(OCC(O)CCN2CCN(c3ccccc3)CC2)c1` (configuration not stated), the melting point was 88 to 90 °C.

As to `CSc1nc(=O)[nH]c(C)c1Br`, the melting point stood at 244 °C.

With `c1csc(OCCOc2ccc3ccccc3c2)c1`, the melting point fell in the range of 129 to 130 °C.

`Cc1cc(C)c(C=C(C(=O)O)c2csc(N)n2)c(C)c1` returned a melting point of over 200 °C.

`COc1cccc(CC(=O)O)c1OCCCc1cn(-c2ncc(C(F)(F)F)cc2Cl)nc1C(C)C`: the melting point was in the range of 96 to 97 °C.

Compound `Cc1cc(-c2nc3ccccc3s2)ccc1N` came in with a melting point of 193 to 195 °C.

In turn, `COc1cc(Nc2ncc(C#N)c(-c3ccccc3)n2)cc(OC)c1` came in with a melting point of 206 to 207 °C.

For `OC1CSC(Oc2cncc(-c3ccc(F)cc3)c2)C(O)C1O` (configuration not stated), the melting point lay within 208 to 209 °C.

Consider `COc1cccc(CNc2nccc(-c3cc(N4CCN(CCCN5CCOCC5)CC4)c4cc(OC)ccc4c3)n2)c1`, for which the melting point is 65 to 73 °C.

`O=C1OCCN1c1ccc(OC(F)C(F)(F)F)cc1` (configuration not stated): the melting point is 74 to 76 °C.

For `Cc1cc(NS(=O)(=O)c2nc3nc(Cl)cc(Cl)n3n2)ccc1Br`, the melting point lay in the range of 232 to 234 °C.

On to `CCOC(=O)C(C#N)c1ncccc1[N+](=O)[O-]` (configuration not stated), for which the melting point lay within 133 to 134 °C.

With `C[C@H](NC(=O)c1c[nH]c2ncc(-c3ccc(C(=O)NCc4cccc(C#N)c4)s3)nc12)C(C)(C)C`, the melting point was in the range of 171 to 174 °C.

For `Cn1cncc1C(O)(c1ccoc1)c1ccc2c(c1)c(-c1cccc(Cl)c1)cc(=O)n2C` (configuration not stated), the melting point came to 248 °C.

Take `COCCOCCOCc1c(Br)c(Br)c(Br)c(Br)c1Br`: the melting point was found to be 83 °C.

As to `Nc1cc(Cl)cc(C(F)(F)F)c1N`, the melting point is 53 °C.

With `O=C(/C=C/c1ccc(S(=O)(=O)N2CCN(c3ccc([N+](=O)[O-])cc3)CC2)cc1)NO`, the melting point lay within 199 to 200 °C.

Compound `CN1CCN(c2cccc3ccc(NC(N)=S)cc23)CC1` came in with a melting point of 194 to 195 °C.

`O=Cc1c(Cl)cccc1OC[C@H]1CO1` showed a melting point of 62 to 64 °C.

On to `Cc1ccc(NCc2ccc(C(=O)Nc3ccccc3N)cc2)cc1Nc1nccc(-c2cccnc2)n1`, for which the melting point fell in the range of 112 to 120 °C.

Consider `CNC(=O)Nc1ccc(O)cc1`, for which the melting point lay within 169 to 171 °C.

`C=Cc1ccc(S(=O)(=O)Nc2ncnc(OCCO)c2Cc2c(OC)cccc2OC)cc1` yielded a melting point of 138 to 139 °C.

In the case of `CCCC(=O)c1c[nH]c(=O)[nH]1`, the melting point fell in the range of 268 to 270 °C.

Turning to `COc1cc2cc(-c3ccccc3F)sc2c(Cl)c1Cl`, the melting point was 143 to 144 °C.

As for `Cc1c(NC(=O)c2ccc(OC[C@@H]3CCCO3)cc2)ccc2cc(CNCC(C)C)cnc12`, the melting point fell in the range of 142 to 143 °C.

`CSc1ncc2cc(Oc3ccc(F)cc3F)c(NS(C)(=O)=O)nc2n1` registered a melting point of 199 to 204 °C.

`COc1cc(-n2nc(C(F)(F)F)cc2-c2ccc(-c3ccco3)cc2)ccc1S(C)(=O)=O` showed a melting point of 139 °C.

For the compound `CCCCc1c2c(cc3ccc(O)cc13)-c1ccc(O)cc1CO2`, the melting point lay within 187 to 189 °C.

As to `COc1cc2c(cc1O)CCN(Cc1ccccn1)C2`, the melting point fell in the range of 137 to 138 °C.

For the compound `Cc1ccc(C(=O)CCCl)cc1`, the melting point fell in the range of 77.5 to 78.5 °C.

In turn, `Cc1noc(C)c1-c1cncc(OC2SCC(O)C(O)C2O)c1` (configuration not stated) came in with a melting point of 222 to 223 °C.

`C#Cc1ccnc(-c2ccc(Br)cc2[N+](=O)[O-])c1`: the melting point lay in the range of 166 to 171 °C.

In the case of `O=C(Nc1ccc2ccc(Cl)nc2n1)C1=CSCS1`, the melting point was 235 °C.

`CC(=C1SCSCS1)c1ccc(OCCCN2CCOCC2)cc1` showed a melting point of 95 to 98 °C.

In turn, `CN1Cc2c(C(=O)OCC3CC3)ncn2-c2cccc(Cl)c2C1=O` yielded a melting point of 194 to 195 °C.

`CCN(CC)C(=O)c1ccn2nc(-c3ccccc3)c(-c3ccc(=O)n(C(C)C)n3)c2c1` showed a melting point of 157 to 158 °C.

In turn, `O=C(Nc1ccc(C(F)(F)F)cc1)c1ccccc1NCc1ccncc1` showed a melting point of 171 to 175 °C.

Regarding `NCCC(O)(c1ccc(-c2ccccc2)cc1)c1ccc(-c2ccccc2)cc1`, the melting point was in the range of 176 to 178 °C.

The compound `NS(=O)(=O)NC[C@H]1COc2cc(Cl)ccc2O1` had a melting point of 99 to 100 °C.

In turn, `O=C(O)c1ccc2[nH]c(C(=O)O)cc2c1` showed a melting point of 314 to 315 °C.

With `Oc1nnc(O)c2c1CCCC2`, the melting point was in the range of 298 to 300 °C.

With `Cc1cc(C2=CCC(c3ccc(OCC4CO4)cc3)CC2)ccc1OCC1CO1` (configuration not stated), the melting point worked out at 117 °C.

`O=[N+]([O-])C=C1SCCCN1S(=O)(=O)CCCO` registered a melting point of 80 to 83 °C.

In the case of `Clc1nc(N2CCOCC2)nc(-n2cnc3ccccc32)n1`, the melting point was in the range of 201 to 203 °C.

The compound `Cc1nc[nH]c1CSCCNC(=N)NCCSCc1nccs1` gave a melting point of 149 to 151 °C.

`COc1ccc2c(c1)Sc1c(cc(OC)c(O)c1Br)N2C` gave a melting point of 154 to 155 °C.

With `O=C(NCN1CCN(c2ccccc2Cl)CC1)c1ccccc1`, the melting point lay in the range of 145 to 147 °C.

Compound `CCC(=O)c1cc(OCc2ccccc2)c(OC)cc1[N+](=O)[O-]` returned a melting point of 120 to 123 °C.

The compound `N#Cc1cc(C(=O)NN2CCOCC2)ccc1O` gave a melting point of 238 to 240 °C.

Compound `CC(C)N(c1ccc(O)cc1)S(=O)(=O)c1ccc(O)cc1` yielded a melting point of 158 to 159 °C.

As for `N#Cc1c(N)cccc1Sc1ccccc1`, the melting point lay in the range of 73 to 77 °C.

The compound `CC1(C)OC(=S)Nc2ccc(-c3ccc(C#N)o3)cc21` returned a melting point of 200 °C.

As to `NS(=O)(=O)Oc1ccc2ccccc2c1`, the melting point lay within 114 to 115 °C.

Turning to `COc1ccc2c(c1)c(-c1ccccc1)nc(=S)n2CC1CC1`, the melting point lay in the range of 180 to 181 °C.

`Cc1cc(Cl)c(C)c(S(=O)(=O)Nc2onc(C)c2Br)c1` returned a melting point of 148 to 150 °C.

`O=C(CCCCC(=O)Oc1ccc(NC(=O)c2ccccc2)cc1)CC1CC(O)CC1=O` (configuration not stated) gave a melting point of 143 to 146 °C.

The compound `O=C(NCCO)c1cccc(-c2cncc3cc(Cc4cccc(C(F)(F)F)c4)oc23)c1` registered a melting point of 155 to 156 °C.

`CC(C)(C)c1cc(NC(=O)c2cccc(C(=O)O)c2)cc(C(C)(C)C)c1O` had a melting point of 253 to 257 °C.

Compound `CCOC(=O)C1CCC2(c3cc(OC)c(OC)cc3CCN2C(=O)CCN(C)C)C(C2c3cc(OC)c(OC)cc3CCN2CC)C1` (configuration not stated) gave a melting point of 154 to 156 °C.

`COc1ccc(Cc2nccc3c4c(ccc23)OCO4)cc1OC` registered a melting point of 111 °C.

Take `CO[C@@H]1O[C@H](C(N)=O)[C@H]2OC(C)(C)O[C@@H]12`: the melting point fell in the range of 134 to 136 °C.

In turn, `O=C(NC1CCC(CNc2nc3c(s2)CCOc2ccccc2-3)CC1)OCc1ccccc1` (configuration not stated) had a melting point of 124 to 127 °C.

`COc1ccc2cc([C@H](C)C(=O)OCCN(CCO[N+](=O)[O-])S(=O)(=O)c3ccc(C)cc3)ccc2c1` displayed a melting point of 92 to 95 °C.

In the case of `CCn1nc2c(N)nc3ccccc3c2c1CC1(O)CCN(C(C)=O)CC1`, the melting point lay in the range of 231 to 232 °C.

As to `COC(=O)NC(=NS(=O)(=O)NC1CCCCC1)OC`, the melting point lay in the range of 84 to 86 °C.

`CCCCC1(C(=O)N[C@@H](Cc2ccc(NC(=O)c3c(Cl)cccc3Cl)cc2)C(=O)OC)CCCC1` registered a melting point of 193 to 196 °C.

Turning to `COc1ccc(C=C(C#N)C(=O)O)cc1OC`, the melting point was 206 °C.

The compound `O=C1NCc2c(-c3ccccc3)cccc2N1c1ccccc1` gave a melting point of 234 to 235 °C.

The compound `O=C(Nc1ccccc1)N(c1ccccc1)c1ccccc1` yielded a melting point of 131 °C.

`CC(C)(C)OC(=O)N[C@@H]1C(=O)N(O)C1(C)C` came in with a melting point of 148 to 149 °C.

On to `Cc1oc2ccc(N)cc2c1C`, for which the melting point fell in the range of 77 to 78 °C.

`COc1ccccc1C(=O)c1cccc2c1ccn2C` had a melting point of 74 °C.

For the compound `CN1CCN(C(=O)[C@H](CCC(N)=O)NC(=O)CCc2ccc(OCc3ccccc3)cc2OCc2ccccc2)CC1`, the melting point lay within 120 to 122 °C.

Turning to `CSC1C(=O)c2ccccc2N1C(=O)c1ccccc1` (configuration not stated), the melting point was 126 to 128 °C.

`O=C(O)C(=O)c1cn(Cc2ccccc2)c2ccc(-c3ccc(OC(F)(F)F)cc3)cc12` gave a melting point of 169 to 171 °C.

In turn, `Cc1cccc(S(=O)(=O)N=CN(C)C)c1C#N` came in with a melting point of 168 to 174 °C.

Regarding `CCc1cc(C(=O)c2ccccc2Cl)c(-n2c(C)nnc2COC(=O)c2ccc(Cl)c(Cl)c2)s1`, the melting point fell in the range of 117 to 119 °C.

In turn, `COc1ccc(CNS(C)(=O)=O)cc1OC` came in with a melting point of 78 to 81 °C.

With `Cc1cc(-c2cccc(N)n2)c(C)cc1OCCN1CCN(CCc2ccccc2)CC1`, the melting point was over 220 °C.

`O=C(OCC1OC(n2cc(F)c(=O)[nH]c2=O)CC1OCc1ccccc1)c1ccc2c(c1)OCO2` (configuration not stated) displayed a melting point of 169 to 171 °C.

The compound `O=C(O)CO[C@@H]1CCCC[C@H]1NC(=O)Nc1ccccc1` (relative stereo) displayed a melting point of 166 to 168 °C.

Compound `CCN1CC(COS(=O)(=O)c2ccc(C)cc2)Oc2ccccc21` (configuration not stated) had a melting point of 85 to 87 °C.

For the compound `NC(=O)c1c(Cl)cn2c1CN(S(=O)(=O)c1ccc(C(F)(F)F)cc1)CC2`, the melting point lay within 159 to 160 °C.

On to `COc1ccc(C(=O)Nc2ccncc2)c2c1[nH]c1ccccc12`, for which the melting point is over 250 °C.

As to `Cc1c(N(C)C)ccc(Br)c1N=C1NCCN1`, the melting point lay within 157 to 158 °C.

As for `CNc1nn(C(=O)NC(C)(C)C)c(=O)n1N`, the melting point is 174 °C.
